Measured values reported in PMC10584170, “Machine learning-based phenotypic imaging to characterise the targetable biology of Plasmodium falciparum male gametocytes for the development of transmission-blocking antimalarials” (PLOS Pathogens, 2023).

Key:
[1] = tested on: P. falciparum female gametocytes; experiment: P. falciparum Dual Gamete Formation Assay (PfDGFA), female readout (Pfs25-positive female gametes); format: cell-based, Plasmodium falciparum NF54; conditions: for Average inhibition female (%): average of replicates; for % inhibition female (individual replicates) R1: replicate R1; for % inhibition female (individual replicates) R3: replicate R3; for % inhibition female (individual replicates) R4: replicate R4
Procedure, shortened: (§1)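 Day-14 NF54 gametocytes were incubated with compound for 24 h at 37°C under 1% O2/3% CO2/96% N2. Gametogenesis was triggered with ookinete medium (0.1 μM xanthurenic acid) plus Cy3-anti-Pfs25, and exflagellation was imaged by brightfield after cooling to 4°C then 28°C. Females were imaged by Pfs25 fluorescence 24 h later at 28°C.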

[2] = tested on: P. falciparum male gametocytes; experiment: P. falciparum Dual Gamete Formation Assay (PfDGFA), male readout (exflagellation); format: cell-based, Plasmodium falciparum NF54; conditions: for Average inhibition male (%): average of replicates; for % inhibition male (individual replicates) R1: replicate R1; for % inhibition male (individual replicates) R3: replicate R3; for % inhibition male (individual replicates) R4: replicate R4
Procedure, shortened: as §1

[3] = PfDGFA at 2µM, 24h preincubation with gametocytes
[4] = number of replicates with >50% inhibition in the female readout, 2µM
[5] = number of replicates with >50% inhibition in the male readout, 2µM
[6] = 2µM, 24h preincubation with gametocytes prior to induction of gametogenesis
[7] = 2µM, 24h preincubation, number of replicates with >50% inhibition in the female readout
[8] = 2µM, 24h preincubation, number of replicates with >50% inhibition in the male readout

Compound	Average inhibition female (%) [1, 6]	% inhibition female (individual replicates) R1 [1, 6]	% inhibition female (individual replicates) R3 [1, 6]	% inhibition female (individual replicates) R4 [1, 6]	HitlevelF [1, 7]	Average inhibition male (%) [2, 6]	% inhibition male (individual replicates) R1 [2, 6]	% inhibition male (individual replicates) R3 [2, 6]	% inhibition male (individual replicates) R4 [2, 6]	HitlevelM [2, 8]	other results
COc1ccc(CNC2CCN(C)CC2)cc1-c1ccc(S(=O)(=O)NCc2ccccc2)cc1.O=C(O)C(F)(F)F [TCMDC-132244]	–	–	–	–	–	–	–	–	–	–	Average inhibition female (%) [1, 3]: 25.2%; % inhibition female (individual replicates) R1 [1, 3]: 21.6%; % inhibition female (individual replicates) R3 [1, 3]: 8.8%; % inhibition female (individual replicates) R4 [1, 3]: 45.4%; HitlevelF [1, 4]: 0; Average inhibition male (%) [2, 3]: 63.1%; % inhibition male (individual replicates) R1 [2, 3]: 62.4%; % inhibition male (individual replicates) R3 [2, 3]: 51.6%; % inhibition male (individual replicates) R4 [2, 3]: 78.9%; HitlevelM [2, 5]: 4
COc1ccc(CNC2CCN(C)CC2)cc1-c1ccc(S(=O)(=O)NC2CCC2)cc1.O=C(O)C(F)(F)F [TCMDC-132245]	10.6%	7.8%	-17.0%	30.9%	0	51.4%	59.0%	27.2%	60.2%	3	–
COc1ccc(CNC2Cc3ccccc3C2)cc1-c1ccc(OC)c(S(=O)(=O)NCCN2CCCC2)c1.O=C(O)C(F)(F)F [TCMDC-132251]	36.3%	26.7%	26.1%	31.1%	1	-9.5%	-12.6%	-24.0%	8.2%	0	–
COc1ccc(CNC2CCN(C)CC2)cc1-c1ccc(S(=O)(=O)NC2CCC2)s1.O=C(O)C(F)(F)F [TCMDC-132254]	16.7%	16.7%	22.1%	14.8%	–	56.3%	57.2%	–	49.8%	–	HitlevelF ([1]; 2µM, 24h preincubation, hits selected on >50% inhibition in the female readout across replicates): 0; HitlevelM ([2]; 2µM, 24h preincubation, hits selected on >50% inhibition in the male readout across replicates): 2; Activity ([2]; PfDGFA at 2µM, 24h preincubation, hit = >50% inhibition in male or female readout in at least 3 replicates, 0 = no class assigned): 0
COc1ccc(CNC2CCN(C)CC2)cc1-c1cccc(S(=O)(=O)NCc2ccccc2)c1.O=C(O)C(F)(F)F [TCMDC-132267]	–	–	–	–	–	–	–	–	–	–	Average inhibition female (%) [1, 3]: 16.9%; % inhibition female (individual replicates) R1 [1, 3]: 27.9%; % inhibition female (individual replicates) R3 [1, 3]: 4.5%; % inhibition female (individual replicates) R4 [1, 3]: 10.9%; HitlevelF [1, 4]: 0; Average inhibition male (%) [2, 3]: 67.3%; % inhibition male (individual replicates) R1 [2, 3]: 62.4%; % inhibition male (individual replicates) R3 [2, 3]: 55.8%; % inhibition male (individual replicates) R4 [2, 3]: 79.6%; HitlevelM [2, 5]: 4
COc1ccc(CNC2Cc3ccccc3C2)cc1-c1cccc(S(=O)(=O)NCCN2CCCC2)c1.O=C(O)C(F)(F)F [TCMDC-132269]	23.4%	14.9%	-7.5%	55.1%	1	7.0%	7.1%	-13.3%	18.2%	0	–
COc1ccc(CNCc2ccc(F)cc2)cc1-c1ccc(S(=O)(=O)NCCN2CCCC2)cc1.O=C(O)C(F)(F)F [TCMDC-132294]	26.6%	28.2%	29.3%	24.2%	0	-4.3%	-26.4%	–	1.5%	0	–
